Values quoted from earlier work in PubChem BioAssay AID1259409 (Chemical Carcinogenesis Research Information System (CCRIS), 2018).

System: rodent chemically induced tumor inhibition, incidence and multiplicity
Experiment: CCRIS tumor inhibitor studies

For COc1ccc2nc(S(=O)Cc3ncc(C)c(OC)c3C)[nH]c2c1 (stereo not given), the “tumour outcome (control, treated, inhibition, significance)” value (Carcinogen: AZOXYMETHANE, 25843-45-2, Dose [Inhibitor]: 0, 40 UMOL/KG 1/D FOR 27 WK BEGINNING 6 WK PRIOR TO CARCINOGEN TREATMENT (STUDY DURATION: 27 WK), Route [Inhibitor]: GAVAGE, Species: RAT, Strain/Sex: SPRAGUE-DAWLEY/FEMALE, Target Tissue: Type of Lesion: COLON: TUMOR, Dose [Carcinogen]: 10 MG/KG 1/WK FOR 12 WK, Promoter: NONE USED) is given as 19/20 (95%), 12/19 (63%), 34%, p<0.02.
In the case of CCCCCCCCCCCCCCCCCCCCCCCCCCCCOC(=O)/C=C/c1ccc(O)c(OC)c1, the “tumour outcome (control, treated, inhibition, significance)” value (Carcinogen: 7,12-DIMETHYLBENZ[A]ANTHRACENE, 57-97-6, Dose [Inhibitor]: 0, 2 UMOL IN ACETONE/DMSO (9:1) 2/WK FOR 20 WK BEGINNING 1 WK POST CARCINOGEN DOSE (STUDY DURATION: 20 WK), Route [Inhibitor]: DERMAL, Species: MOUSE, Strain/Sex: ICR/FEMALE, Target Tissue: Type of Lesion: SKIN: PAPILLOMA, Dose [Carcinogen]: 50 UG ONCE, Promoter: 12-O-TETRADECANOYLPHORBOL-13-ACETATE, 16561-29-8) is listed as 100%, 20%, 80%, not calculated.
In the case of Cc1c(C)c2c(c(C)c1O)CCC(C)(CCCC(C)CCCC(C)CCCC(C)C)O2 (stereo not given), the “tumour outcome (control, treated, inhibition, significance)” value (Carcinogen: N-NITROSOMETHYLBENZYLAMINE, 937-40-6, Dose [Inhibitor]: 30, 172 MG/KG IN DIET BEGINNING POST CARCINOGEN TREATMENT AND CONTINUING FOR 22 WK (STUDY DURATION: 25 WK), Route [Inhibitor]: ORAL, Species: MOUSE, Strain/Sex: C57BL/FEMALE, Target Tissue: Type of Lesion: ESOPHAGUS: TUMOR, Dose [Carcinogen]: 0.2 MG/KG IN CORN OIL 3/WK FOR 3 WK, Promoter: ETHANOL, 64-17-5) is listed as 10/17 (59%), 6/16 (38%), 36%, not calculated, the “tumour outcome (control, treated, inhibition, significance)” value (Carcinogen: N-NITROSOMETHYLBENZYLAMINE, 937-40-6, Dose [Inhibitor]: 30, 172 MG/KG IN DIET BEGINNING POST CARCINOGEN TREATMENT AND CONTINUING FOR 22 WK (STUDY DURATION: 25 WK), Route [Inhibitor]: ORAL, Species: MOUSE, Strain/Sex: C57BL/FEMALE, Target Tissue: Type of Lesion: ESOPHAGUS: TUMOR, Dose [Carcinogen]: 0.2 MG/KG IN CORN OIL 3/WK FOR 3 WK, Promoter: NONE USED) is listed as 6/15 (40%), 3/15 (20%), 50%, not calculated and the “tumour outcome (control, treated, inhibition, significance)” value (Carcinogen: UVB IRRADIATION, Dose [Inhibitor]: 0, 25 MG IN 200 µL ACETONE 3/WK FOR DURATION OF STUDY BEGINNING 3 WK PRIOR TO IRRADIATION (STUDY DURATION: 33 WK), Route [Inhibitor]: DERMAL, Species: MOUSE, Strain/Sex: C3H/HEN/FEMALE, Target Tissue: Type of Lesion: SKIN: TUMOR, Dose [Carcinogen]: 6 J/M2/SEC 30 MIN/D, 5 D/WK FOR 27 WK, Promoter: NONE USED) is listed as 81%, 42%, 48%, p=0.0065.
